Data from US20100249030A1, “ANTI-MITOTIC AGENT AND AURORA KINASE INHIBITOR COMBINATION AS ANTI-CANCER TREATMENT” (Schering Corporation, priority 2007, published 2010).
Read-outs that look alike come from different tables or passages of the source.

Columns and labels:
cancer cell lines = conditions: cited from earlier work; for cell growth inhibition in combination with a taxane: VX-680 with taxotere, VE-645 with taxol, AZD1152 with taxol, AACR 2007 abstracts; for synergy with Taxotere: Hoover and Harding 2007
phos-MPM2 marker = test: Exit from mitosis measured by phos-MPM2 marker after anti-mitotic induced arrest; type: cell-based; conditions: taxane and KSP induced arrest
Protocol: (§1) Single agent Aurora kinase inhibitors require a drug exposure time of 24 hours to induce endoreduplication in asynchronous cells.

[1] = system: HCT-116 colon cancer cells; test: FACS (flow cytometric) analysis of endoreduplication (>4N DNA content) in HCT-116 colon cancer cells; type: cell-based; conditions: after 16 hours 10 nM Ispinesib pretreatment; 1000 nM Compound X / 25 nM Compound Z
[2] = system: phosphorylation of Histone H3 (at serine-10); test: Inhibition of phosphorylation of Histone H3 (serine-10) stimulated by anti-mitotic agents; type: cell-based; conditions: stimulated by taxanes, KSP inhibitor, and nocodazole
Protocol: as §1

[3] = system: HCT-116 colon cancer cells; test: FACS (flow cytometric) analysis of endoreduplication (>4N DNA content) in HCT-116 colon cancer cells; type: cell-based; conditions: for endoreduplication: FACS at 24 hours; for exposure to Aurora kinase inhibitor required to induce endoreduplication (>4N DNA content) or cell death: asynchronous cells, 250 nM VX-680, 1000 nM COMPOUND X, 25 nM COMPOUND Z; for exposure to Aurora kinase inhibitor required to induce endoreduplication (>4N DNA content) or cell death / endoreduplication (>4N DNA content): single agent; for time required for Aurora inhibitor to induce endoreduplication, change after pre-treatment: following 16 hour pre-treatment with nocodazole, 250 nM VX-680, 1000 nM COMPOUND X or COMPOUND Z; for cell cycle distribution after release from anti-mitotic pretreatment: 16 hours pretreatment (5 nM taxotere / 0.4 μg/ml nocodazole), then released into DMSO; for cell cycle distribution after anti-mitotic pretreatment (labeled 0 hours): 16 hours pretreatment, 5 nM taxotere / 0.4 μg/ml nocodazole; for effect of anti-mitotic pre-treatment on the exposure time required for an Aurora kinase inhibitor to induce endoreduplication: 16 hour pre-treatment with the anti-mitotic agent (5 nM taxol, 10-50 nM KSP inhibitors)
Protocol: Asynchronous cells require 24 hour exposure to Aurora kinase inhibitors (such as 250 nM VX-680 or 1000 nM COMPOUND X. (Compound X is disclosed in WO 2008/057512, filed Nov. 6, 2007, Example 4-3 and Claim 70, Example 4-3 and Claim 70 and is shown below and it is represented in Formula H and Table 2, column 2, row 17 of the present application) or 25 nM COMPOUND Z (Compound Z is disclosed in PCT US2008/007295, filed Jun. 11, 2008, Example 76-2 and Claim 25, row 7, column 4 and it is represented in Table 13, compound 76-2 of the present application)) to induce endoreduplication (>4N DNA content) or cell death. For example, HCT-116 colon cancer cells were treated with 1000 nM COMPOUND X or 25 nM COMPOUND Z for the indicated times at which time the drug was washed off and replaced with new media see FIG. 1 and FIG. 8 respectively. Cells were analyzed by FACS after a total of 72 hours.
For example, HCT-116 colon cancer cells were treated with 1000 nM COMPOUND X or 25 nM COMPOUND Z for the indicated times at which time the drug was washed off and replaced with new media see FIG. 2 and FIG. 9 respectively. Cells were analyzed by FACS after a total of 24 hours.
For example, HCT-116 colon cancer cells were treated for 16 hours with DMSO (FIG. 3) or 5 nM taxotere and then exposed to DMSO or 1000 nM COMPOUND X or 25 nM COMPOUND Z for 4, 8, and 24 hours. After 4 or 8 hours, COMPOUND X or COMPOUND Z was washed off and new media was added to the cells. Cells were harvested after 24 hours and analyzed by FACS (see FIG. 4 and FIG. 11 respectively). Following DMSO pretreatment, DMSO had no effect on cell cycle distribution. […] Endoreduplication was observed even when COMPOUND X or COMPOUND Z exposure was as little as 4 hours.
However, following a 16 hour pre-treatment with nocodazole for incrusting, the time required for an Aurora inhibitor (such as 250 nM VX-680 or 1000 nM COMPOUND X or COMPOUND Z) to induce endoreduplication was […]. For example, HCT-116 colon cancer cells were treated for 16 hours with 0.4 μg/ml nocodazole see FIG. 5, and then exposed to DMSO or 1000 nM COMPOUND X or COMPOUND Z for 4, 8 or 24 hours. After 4 or 8 hours, COMPOUND X or COMPOUND Z was washed off and new media was added to the cells. Cells were harvested after 24 hours and analyzed by FACS.
For example, HCT-116 colon cancer cells that were not pretreated, were treated with 5 nM taxotere plus DMSO or 1000 nM COMPOUND X or COMPOUND Z concurrently for 4, 8, or 24 hours. At the indicated time the media was removed and replaced with new media and taxotere was added back into these cells. Cells were harvested after 24 hours and analyzed by FACS see FIG. 6 or FIG. 12 respectively.

[4] = system: cells arrested with taxol, monastrol or nocodazole; conditions: Morrow et al. 2005, Ditchfield et al. 2003, cited from earlier work
[5] = 24 hour exposure, FACS after a total of 24 hours, 250 nM VX-680 / 1000 nM Compound X / 25 nM Compound Z
[6] = exposure less than 24 hours then washed off, FACS after a total of 24 hours, 250 nM VX-680 / 1000 nM Compound X / 25 nM Compound Z

SMILES: CCN(CCCOc1ccc2c(Nc3cc(CC(=O)Nc4cccc(F)c4)n[nH]3)ncnc2c1)CCOP(=O)(O)O [AZD1152, reference compound]
- cell growth inhibition in combination with a taxane (cancer cell lines): showed enhanced cell growth inhibition
- exit from mitosis, as measured by phos-MPM2 marker (phos-MPM2 marker): accelerated the exit from mitosis

SMILES: CSc1cn2c(-c3cn[nH]c3)cnc2c(Nc2cc(C)ns2)n1 [Compound X]
- Aurora kinase inhibitor exposure at which endoreduplication was still observed (as little as) [1]: ≤ 4 h
- inhibition of phosphorylation of Histone H3 (at serine-10) [2]: capable of inhibiting phosphorylation of Histone H3
- exit from mitosis, as measured by phos-MPM2 marker (phos-MPM2 marker): accelerated the exit from mitosis
- endoreduplication ([3]; 16 hours 5 nM taxotere pretreatment, then 1000 nM Compound X or 25 nM Compound Z for 4, 8 and 24 hours): induced endoreduplication
- endoreduplication ([3]; 16 hours 10 nM Ispinesib (KSP inhibitor) pretreatment, then 1000 nM Compound X or 25 nM Compound Z for 4, 8 and 24 hours): induced endoreduplication
- endoreduplication ([3]; 16 hours DMSO pretreatment, then 1000 nM COMPOUND X or 25 nM COMPOUND Z for 4, 8 and 24 hours): induced endoreduplication, but only when COMPOUND X or COMPOUND Z exposure was 24 hours
- endoreduplication ([3]; 16 hours nocodazole (0.4 μg/ml) pretreatment, then 4- or 8-hour exposure to Aurora kinase inhibitor): insufficient to induce endoreduplication
- endoreduplication ([3]; 16 hours nocodazole (0.4 μg/ml) pretreatment, then 24 hour exposure to Aurora kinase inhibitor): induced endoreduplication
- endoreduplication ([3]; Aurora kinase inhibitor given at the same time as 5 nM taxotere, 4 hour exposure): not sufficient to induce endoreduplication
- exposure needed to induce endoreduplication ([3]; Aurora kinase inhibitor given at the same time as 5 nM taxotere, no pretreatment): 24 h
- Aurora kinase inhibitor exposure at which endoreduplication was still observed (as little as) ([3]; after 16 hours 5 nM taxotere pretreatment, 1000 nM Compound X / 25 nM Compound Z): ≤ 4 h
- exposure to Aurora kinase inhibitor required to induce endoreduplication (>4N DNA content) or cell death [3]: 24 h
- time required for Aurora inhibitor to induce endoreduplication, change after pre-treatment [3]: not reduced
- endoreduplication (>4N DNA content) [3, 5]: sufficient to induce endoreduplication
- endoreduplication (>4N DNA content) ([3]; drug exposure for 24, 48, or 72 hours, FACS after a total of 72 hours, 1000 nM Compound X / 25 nM Compound Z): resulted in the accumulation of cells that underwent endoreduplication
- endoreduplication (>4N DNA content) ([3]; exposure less than 24 hours then drug washed off, FACS after a total of 72 hours, 1000 nM Compound X / 25 nM Compound Z): insufficient to induce endoreduplication
- endoreduplication (>4N DNA content) [3, 6]: insufficient to induce endoreduplication

SMILES: Cc1cc(Nc2cc(N3CCN(C)CC3)nc(Sc3ccc(NC(=O)C4CC4)cc3)n2)n[nH]1 [MK-0457]
- synergy with Taxotere (cancer cell lines; long-term survival assays): synergy occurred with simultaneous exposure
- synergy with Taxotere (cancer cell lines; short-term viability assays): synergy occurs with sequential and not simultaneous exposure

SMILES: CC(=O)O[C@@]12CO[C@@H]1C[C@H](O)[C@@]1(C)C(=O)[C@H](O)C3=C(C)[C@@H](OC(=O)[C@H](O)[C@@H](NC(=O)OC(C)(C)C)c4ccccc4)C[C@@](O)([C@@H](OC(=O)c4ccccc4)[C@H]21)C3(C)C [Taxotere, docetaxel, reference compound]
- cell cycle distribution after release from anti-mitotic pretreatment [3]: exited mitosis
- cell cycle distribution after anti-mitotic pretreatment (labeled 0 hours) [3]: accumulated in mitosis (4N DNA)

SMILES: Cc1cc(Nc2cc(N3CCN(C)CC3)nc(Sc3ccc(NC(=O)C4CC4)cc3)n2)n[nH]1 [VX-680, reference compound]
- inhibition of phosphorylation of Histone H3 (at serine-10) [2]: capable of inhibiting phosphorylation of Histone H3
- cell growth inhibition in combination with a taxane (cancer cell lines): showed enhanced cell growth inhibition
- exit from mitosis, as measured by phos-MPM2 marker (phos-MPM2 marker): accelerated the exit from mitosis
- exposure to Aurora kinase inhibitor required to induce endoreduplication (>4N DNA content) or cell death [3]: 24 h
- time required for Aurora inhibitor to induce endoreduplication, change after pre-treatment [3]: not reduced
- endoreduplication (>4N DNA content) [3, 5]: sufficient to induce endoreduplication
- endoreduplication (>4N DNA content) [3, 6]: insufficient to induce endoreduplication

SMILES: COc1cc2c(Nc3ccc(NC(=O)c4ccccc4)cc3)ncnc2cc1OCCCN1CCOCC1 [ZM4477439]
- mitotic arrest ([4]; arrest induced by nocodazole): not by nocodazole
- mitotic arrest ([4]; arrest induced by taxol): abrogated mitotic arrest induced by taxol

SMILES: COC(=O)Nc1nc2ccc(C(=O)c3cccs3)cc2[nH]1 [nocodazole, reference compound]
- effect of anti-mitotic pre-treatment on the exposure time required for an Aurora kinase inhibitor to induce endoreduplication [3]: did not result in the same reduction in required exposure time
- cell cycle distribution after release from anti-mitotic pretreatment [3]: exited mitosis
- cell cycle distribution after anti-mitotic pretreatment (labeled 0 hours) [3]: accumulated in mitosis (4N DNA)

SMILES: CC[C@]1(O)C[C@H]2CN(CCc3c([nH]c4ccccc34)[C@@](C(=O)OC)(c3cc4c(cc3OC)N(C=O)[C@H]3[C@@](O)(C(=O)OC)[C@H](OC(C)=O)[C@]5(CC)C=CCN6CC[C@]43[C@@H]65)C2)C1 [vincristine, reference compound]
- effect of anti-mitotic pre-treatment on the exposure time required for an Aurora kinase inhibitor to induce endoreduplication [3]: did not result in the same reduction in required exposure time
